From patent US20260297060A1, “COMPOUNDS FOR THE DEGRADATION OF MUTANT BRAF” (C4 THERAPEUTICS, INC., priority 2023, published 2026)
Where two headings read alike, the source gives them in different places.

What was measured:
[1] = system: BRAF V600E; test: Pharmacodynamics of BRAF protein degradation in inoculated CNS tumors (Example 12); type: in vivo, human A375 CNS xenograft in mice; conditions: CNS tumor-bearing mice, after administration, versus encorafenib, FIG. 51
Procedure: FIG. 51 is a plot showing the pharmacodynamics of BRAF protein degradation in the inoculated CNS tumors. […] The experiment was conducted as described in Example 12.

[2] = Pharmacokinetics after 21 days dosing in the efficacy study (plasma, tumor and brain concentrations; plasma AUC at steady state), Example 14; type: in vivo, female BALB/c nude mice; conditions: for Concentration in Brain / concentration at 24 h: 24 h; for Concentration in Brain: BQL: below the lower limit of quantitation; for concentration at 4 h / concentration at 24 h / concentration at 0.25 h / concentration at 0.5 h / concentration at 1 h / concentration at 2 h / concentration at 8 h / concentration at 10 h / AUC: mouse, po; for AUC: read-out: Plasma AUC at steady state (Day 21), Average
Procedure: Agents were tested in the A375 human melanoma xenografts. Compound 26 and Compound 141 were administered to BALB/c nude mice bearing A375 tumors from PG-DO and dosed via PO twice a day (BID) or third a day (TIP) or dosed P daily (QD) from PG-D. Dabrafenib was administered to BALB/c nude mice bearing A375 tumors from PG-D1 and dosed via P daily (QD). Compound 26 was dosed at 1.5 mg/kg (QD), 2 mg/kg (TID), 3 mg/kg (BID), 6 mg/kg (QD) and 10 mg/kg (BID) for 21 days. Compound 141 was dosed at 0.75 mg/kg (BID), 1 mg/kg (TID), 1.5 mg/kg (BID), 3 mg/kg (QD) and 5 mg/kg (BID) for 21 days. Dabrafenib was dosed at 100 mg/kg for 21 days. This study was non-GLP.
The plasma samples were collected at predetermined time points for PK analysis. For non-termination plasma collection: the blood samples were collected into the 1.5 mL Eppendorf tubes containing 3 μL of 0.5 M EDTA-K2. And then the anticoagulant blood samples were centrifuged at 2,500 g at 4° C. for 15 minutes. For termination plasma collection: the mice was euthanized at predetermined time points post the treatment, the blood samples were collected into the 1.5 mL Eppendorf tubes containing 15 μL of 0.5 M EDTA-K2. And then the anticoagulant blood samples were centrifuged at 2,500 g at 4° C. for 15 minutes. The plasma samples were separated into 2 aliquots. The 1st was used for PK analysis, and the 2nd was served as backup.
The tumor samples were collected at predetermined time points for PK and WB analysis. The tumor was dissected out and split into 3 parts. The 1st part was used for PK analysis, the 2nd part was used for WB analysis and the last one was used as backup for the study. The samples were transferred into pre-labeled tubes and quickly froze in liquid nitrogen within 2 minutes after dissection. The samples were stored at −80° C. before analysis.
The brain samples were collected at predetermined time points for PK and potential WB analysis. The brain was dissected out and split into 3 parts (left brain, right brain upper and right brain lower), the left brain was used for PK, the right brain upper was used for WB and the last one was used as the backup for the study. The samples were transferred into pre-labeled tubes and quickly froze in liquid nitrogen within 2 minutes after dissection. The samples were stored at −80° C. before analysis.
The harvested plasma and tumor samples were processed for pharmacokinetics analysis by LC-MS/MS with a concentration range of 1.00-1,000 ng/mL for dabrafenib in plasma and 0.0500-50 ng/mL in tumor and brain homogenate, 5.00-10,000 ng/mL for Compound 141 in plasma and 0.200~200 ng/ml in tumor and brain homogenate. 20.0~20,000 ng/mL for Compound 26 in plasma and 0.5~500 ng/mL for Compound 26 tumor and brain homogenate.
Dabrafenib, Compound 26 and Compound 141 in female BALB/c nude mice plasma (K2-EDTA), tumor and brain homogenate were analyzed by LC-MS/MS (Triple Quad 6500+ Low Mass). Verapamil (5 ng/mL) in acetonitrile: methanol (V: V=95:5) was used as the internal standard for Dabrafenib, Compound 26 and Compound 141 in plasma. Verapamil (0.5 ng/mL) in acetonitrile: methanol (V: V=95:5) was used as the internal standard for Dabrafenib, Compound 26 and Compound 141 in tumor and brain homogenate.
An aliquot of 10 μL unknown sample, calibration standard, quality control, dilute quality control, single blank and double blank samples were added to the 96-well plate. Each sample for Dabrafenib, Compound 26 and Compound 141 in plasma (except the double blank) was quenched with 200 μL IS respectively (double blank sample was quenched with 200 μL ACN: MeOH (V: V=95:5)); each sample for Dabrafenib, Compound 26 and Compound 141 in tumor and brain(except the double blank) was quenched with 100 μL IS respectively (double blank sample was quenched with 100 μL ACN: MeOH (V: V=95:5)); and then the mixture was vortex-mixed for 5 min at 800 rpm and centrifuged for 15 min at 3220 g (4000 rpm), 4° C. […]

[3] = plasma, 1.5 mg/kg p.o. BID x 21 days, mean ± SEM
[4] = plasma, 1.5 mg/kg p.o. BID x 21 days, mean ± SEM, read-out: Concentration in Plasma
[5] = plasma, 2 mg/kg p.o. TID x 21 days, mean ± SEM
[6] = plasma, 2 mg/kg p.o. TID x 21 days, mean ± SEM, read-out: Concentration in Plasma
[7] = plasma, 3 mg/kg p.o. BID x 21 days, mean ± SEM
[8] = plasma, 3 mg/kg p.o. BID x 21 days, mean ± SEM, read-out: Concentration in Plasma
[9] = plasma, 6 mg/kg p.o. QD x 21 days, mean ± SEM
[10] = plasma, 6 mg/kg p.o. QD x 21 days, mean ± SEM, read-out: Concentration in Plasma
[11] = plasma, 10 mg/kg p.o. BID x 21 days, mean ± SEM
[12] = plasma, 10 mg/kg p.o. BID x 21 days, mean ± SEM, read-out: Concentration in Plasma
[13] = tumor, 1.5 mg/kg p.o. BID x 21 days, mean ± SEM, read-out: Concentration in Tumor
[14] = tumor, 2 mg/kg p.o. TID x 21 days, mean ± SEM, read-out: Concentration in Tumor
[15] = tumor, 3 mg/kg p.o. BID x 21 days, mean ± SEM, read-out: Concentration in Tumor
[16] = tumor, 6 mg/kg p.o. QD x 21 days, mean ± SEM, read-out: Concentration in Tumor
[17] = tumor, 10 mg/kg p.o. BID x 21 days, mean ± SEM, read-out: Concentration in Tumor

SMILES: CCN(C)S(=O)(=O)Nc1ccc(F)c(Oc2ccc3ncn([C@H]4COC5(CCN(C6CC7(C6)CN(c6cc8c(cc6F)c(N6CCC(=O)NC6=O)nn8C)C7)CC5)C4)c(=O)c3c2)c1C#N [Compound 26, (3R)-3-[6-[2-cyano-3-[[ethyl(methyl)sulfamoyl]amino]-6-fluoro-phenoxy]-4-oxo-quinazolin-3-yl]-8-[2-[3-(2,4-dioxohexahydropyrimidin-1-yl)-5-fluoro-1-methyl-indazol-6-yl]-2-azaspiro[3.3]heptan-6-yl]-1-oxa-8-azaspiro[4.5]decane]
- BRAF V600E levels in the brain tumor compared with encorafenib [1]: much lower
- Concentration in Brain ([2]; 1.5 mg/kg p.o. BID x 21 days): BQL
- Concentration in Brain ([2]; 2 mg/kg p.o. TID x 21 days): BQL
- Concentration in Brain ([2]; 3 mg/kg p.o. BID x 21 days): BQL
- concentration at 4 h ([2]; brain, 1.5 mg/kg p.o. BID x 21 days, mean ± SEM, read-out: Concentration in Brain): 28 ± 8.47 ng/g
- concentration at 4 h ([2]; brain, 2 mg/kg p.o. TID x 21 days, mean ± SEM, read-out: Concentration in Brain): 51.1 ± 11.5 ng/g
- concentration at 4 h ([2]; brain, 3 mg/kg p.o. BID x 21 days, mean ± SEM, read-out: Concentration in Brain): 66.6 ± 4.67 ng/g
- concentration at 4 h ([2]; brain, 6 mg/kg p.o. QD x 21 days, mean ± SEM, read-out: Concentration in Brain): 116 ± 8.11 ng/g
- concentration at 24 h ([2]; brain, 6 mg/kg p.o. QD x 21 days, read-out: Concentration in Brain): 7.19 ng/g
- concentration at 4 h ([2]; brain, 10 mg/kg p.o. BID x 21 days, mean ± SEM, read-out: Concentration in Brain): 233 ± 48.4 ng/g
- concentration at 24 h ([2]; brain, 10 mg/kg p.o. BID x 21 days, read-out: Concentration in Brain): 7.79 ng/g
- concentration at 0.25 h [2, 3]: 1330 ± 120 ng/mL
- concentration at 0.5 h [2, 3]: 1910 ± 332 ng/mL
- concentration at 1 h [2, 3]: 3490 ± 364 ng/mL
- concentration at 2 h [2, 3]: 3140 ± 671 ng/mL
- concentration at 4 h [2, 4]: 2160 ± 716 ng/mL
- concentration at 8 h [2, 3]: 912 ± 118 ng/mL
- concentration at 10 h [2, 3]: 694 ± 79.9 ng/mL
- concentration at 24 h [2, 4]: 32.3 ng/mL
- AUC ([2]; plasma, 1.5 mg/kg p.o. BID × 21 days): 37400 ng·h/mL
- concentration at 0.25 h [2, 5]: 2630 ± 273 ng/mL
- concentration at 0.5 h [2, 5]: 5750 ± 1100 ng/mL
- concentration at 1 h [2, 5]: 5420 ± 571 ng/mL
- concentration at 2 h [2, 5]: 5110 ± 286 ng/mL
- concentration at 4 h [2, 6]: 3790 ± 666 ng/mL
- concentration at 8 h [2, 5]: 2060 ± 150 ng/mL
- concentration at 10 h [2, 5]: 1550 ± 37.1 ng/mL
- concentration at 24 h [2, 6]: 106 ± 17.7 ng/mL
- AUC ([2]; plasma, 2 mg/kg p.o. TID × 21 days): 88300 ng·h/mL
- concentration at 0.25 h [2, 7]: 2490 ± 107 ng/mL
- concentration at 0.5 h [2, 7]: 4860 ± 801 ng/mL
- concentration at 1 h [2, 7]: 5830 ± 591 ng/mL
- concentration at 2 h [2, 7]: 6750 ± 675 ng/mL
- concentration at 4 h [2, 8]: 3970 ± 452 ng/mL
- concentration at 8 h [2, 7]: 3030 ± 252 ng/mL
- concentration at 10 h [2, 7]: 2470 ± 266 ng/mL
- concentration at 24 h [2, 8]: 116 ± 2.4 ng/mL
- AUC ([2]; plasma, 3 mg/kg p.o. BID × 21 days): 87900 ng·h/mL
- concentration at 0.25 h [2, 9]: 4440 ± 284 ng/mL
- concentration at 0.5 h [2, 9]: 9990 ± 1160 ng/mL
- concentration at 1 h [2, 9]: 12900 ± 669 ng/mL
- concentration at 2 h [2, 9]: 14600 ± 723 ng/mL
- concentration at 4 h [2, 10]: 8710 ± 1880 ng/mL
- concentration at 8 h [2, 9]: 8220 ± 421 ng/mL
- concentration at 10 h [2, 9]: 6200 ± 192 ng/mL
- concentration at 24 h [2, 10]: 156 ± 10.9 ng/mL
- AUC ([2]; plasma, 6 mg/kg p.o. QD × 21 days): 115000 ng·h/mL
- concentration at 0.25 h [2, 11]: 8790 ± 316 ng/mL
- concentration at 0.5 h [2, 11]: 19300 ± 2220 ng/mL
- concentration at 1 h [2, 11]: 20200 ± 2240 ng/mL
- concentration at 2 h [2, 11]: 21300 ± 1560 ng/mL
- concentration at 4 h [2, 12]: 15100 ± 2210 ng/mL
- concentration at 8 h [2, 11]: 10900 ± 379 ng/mL
- concentration at 10 h [2, 11]: 8660 ± 186 ng/mL
- concentration at 24 h [2, 12]: 273 ± 24.8 ng/mL
- AUC ([2]; plasma, 10 mg/kg p.o. BID × 21 days): 312000 ng·h/mL
- concentration at 4 h [2, 13]: 392 ± 150 ng/g
- concentration at 24 h [2, 13]: 11.8 ± 1.59 ng/g
- concentration at 4 h [2, 14]: 930 ± 57.3 ng/g
- concentration at 24 h [2, 14]: 80.7 ± 25.2 ng/g
- concentration at 4 h [2, 15]: 1430 ± 159 ng/g
- concentration at 24 h [2, 15]: 54.3 ± 8.91 ng/g
- concentration at 4 h [2, 16]: 2910 ± 459 ng/g
- concentration at 24 h [2, 16]: 338 ± 169 ng/g
- concentration at 4 h [2, 17]: 4250 ± 313 ng/g
- concentration at 24 h [2, 17]: 663 ± 153 ng/g
